“And” between values parts separate entries of the source, which are not always exact repeats. Equal entries are not always repeated.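 Five concentrations, 48 hours, 96-well plates. Abbreviation: GI50, concentration required for 50% inhibition of growth. At the TGI there is no net growth.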
Legend:
Assay in all cases: DTP human tumour cell line panel, 48 h
M14 melanoma = system: M14 melanoma
SNB-19 CNS = system: SNB-19 CNS
MALME-3M melanoma = system: MALME-3M melanoma
A549 NSCLC = system: A549 NSCLC
MOLT-4 leukemia = system: MOLT-4 leukemia
NCI-H23 lung = system: NCI-H23 lung
SN12C renal = system: SN12C renal
ACHN renal = system: ACHN renal
MCF7 breast = system: MCF7 breast
PC-3 prostate = system: PC-3 prostate

SMILES | TGI (M14 melanoma) [µM] | TGI (SNB-19 CNS) [µM] | TGI (MALME-3M melanoma) [µM] | TGI (A549 NSCLC) [µM] | TGI (MOLT-4 leukemia) [µM] | TGI (NCI-H23 lung) [µM] | TGI (SN12C renal) [µM] | TGI (ACHN renal) [µM] | GI50 (M14 melanoma) [µM] | GI50 (SNB-19 CNS) [µM] | GI50 (MALME-3M melanoma) [µM] | GI50 (MCF7 breast) [nM] | TGI (MCF7 breast) [µM] | GI50 (A549 NSCLC) [µM] | GI50 (MOLT-4 leukemia) [µM] | GI50 (NCI-H23 lung) [µM] | GI50 (SN12C renal) [µM] | GI50 (ACHN renal) [µM] | GI50 (PC-3 prostate) | TGI (PC-3 prostate) [µM]
Cc1c(C(=O)C/C(=N/NC(=O)C[n+]2ccccc2)C(=O)Nc2ccccc2)[n+](=O)c2ccccc2n1O | > 100 | > 100 | > 100 | > 100 | > 100 | > 100 | > 100 | > 100 | – | – | – | – | – | – | – | – | – | – | – | –
CC(=O)O[C@]1(C)OC(=O)[C@@H](C)N1[N+](=O)[O-] | > 100 | > 100 | > 100 | > 100 | > 100 | > 100 | > 100 | > 100 | – | – | – | – | – | – | – | – | – | – | – | –
COc1c(NC(C)=O)cc(C)cc1NC(C)=O | > 100 | – | – | > 100 | > 100 | – | > 100 | > 100 | – | – | – | – | – | – | – | – | – | – | – | –
Cn1c(O)c(C(/C=C/c2ccccc2)=NCCN=C(/C=C/c2ccccc2)c2c(O)n(C)c(=O)n(C)c2=O)c(=O)n(C)c1=O | > 50 | > 50 | > 50 | > 50 | > 50 | > 50 | > 50 | > 50 | 15 | 21.6 | 30.9 | 15900 | > 50 | 16.7 | 15.8 | 15 | 16.5 | 21.2 | – | –
CCOC(=O)/C=C/c1cc2cc(-c3csc4ccccc34)ccc2[nH]1 | 22.8 | 33.5 | 20.5 | 18.1 | 10.4 | 47.8 | – | 20.1 | 5.42 | 16 | 6.81 | 3340 | 15.3 | 4.39 | 2.44 | 18.3 | – | 7.15 | 3420 nM | 13.8
Cc1noc(C)c1-c1cc(O)cc(C(O)c2ccccc2)c1 (centres undefined) | > 100 | > 100 | > 100 | > 100 | 80.7 | – | > 100 | > 100 | 4.48 | 5.69 | 28.9 | 1700 | > 100 | 22.4 | 17.9 | – | 17.2 | 4.76 | – | –
Cc1cc(C2=NNC(=O)Cc3cc4c(cc32)OCCO4)cc(C)c1N | > 100 | > 100 | – | > 100 | > 100 | > 100 | > 100 | > 100 | 2.17 | 4.31 | – | 1130 | > 100 | 3.2 | 3.97 | 2.89 | 6.17 | 6.48 | 2730 nM | > 100
C[C@]12CCc3nonc3C1CC[C@@H]1C2CC[C@]2(C)NC(=O)CCC12 (some centres undefined) | > 100 | > 100 | > 100 | > 100 | > 100 | > 100 | > 100 | > 100 | – | – | – | – | – | – | – | – | – | – | – | –
CC1(C)CCc2cc3c(cc2O1)OCC1c2cc4c(cc2OC31)OCO4 (centres undefined) | > 100 | > 100 | > 100 | > 100 | > 100 | > 100 | > 100 | > 100 | – | – | – | – | – | – | – | – | – | – | – | –
CCOC(=O)c1c2c(n(Cc3ccccc3)c1C)-c1ccccc1C(=O)C2=O | 24.5 | 29.4 | 29 | 36.4 | – | 27 | 41.6 | 30.2 | 11.9 | 15.4 | 13.7 | 5230 | 20.9 | 16.8 | – | 12.1 | 15.7 | 12.9 | 6830 nM | 19.8
C=CC[P+](c1ccccc1)(c1ccccc1)c1ccccc1 | > 100 | > 100 | – | > 100 | > 100 | – | > 100 | > 100 | 8.09 | 4.1 | – | 2840 | > 100 | 4.54 | 5.07 | – | 6.36 | > 100 | 1780 nM | 33.5
Cn1nnnc1N/N=C/c1ccccc1 | > 10 | > 10 | – | > 10 | > 10 | > 10 | > 10 | > 10 | – | – | – | – | > 10 | – | – | – | – | – | – | > 10
COc1ccc2c(c1)[n+]([O-])c(-c1ccccc1)c(N)[n+]2[O-] | 78.9 | > 100 | 47.2 | > 100 | > 100 | 61.7 | > 100 | > 100 | – | – | – | – | – | – | – | – | – | – | – | –
O=C(c1cc2ccccc2o1)N(Cc1ccccc1)c1ccccc1 | 38.9 | > 100 | 59.8 | > 100 | 39.9 | 71.2 | 34.7 | > 100 | – | – | – | – | – | – | – | – | – | – | – | –
CC(C)(C)CC(C)(C)c1cc2c(O)c(c1)Cc1cc(C(C)(C)CC(C)(C)C)cc(c1O)Cc1cc(C(C)(C)CC(C)(C)C)cc(c1O)Cc1cc(C(C)(C)CC(C)(C)C)cc(c1O)Cc1cc(C(C)(C)CC(C)(C)C)cc(c1O)Cc1cc(C(C)(C)CC(C)(C)C)cc(c1O)C2 | > 100 | > 100 | > 100 | > 100 | > 100 | > 100 | > 100 | > 100 | – | – | – | – | – | – | – | – | – | – | – | –
COC(=O)C1=C(C(=O)OC)C23CC1C1C(C(=O)OC)=C(C(=O)OC)C12C1C=CC3C2C(=O)OC(=O)C21 (centres undefined) | > 100 | > 100 | > 100 | > 100 | > 100 | > 100 | > 100 | > 100 | – | – | – | – | – | – | – | – | – | – | – | –
CCOc1cc2c(cc1O)/C(=N\O)C[C@@H]1[C@@H]2CC[C@]2(C)[C@@H](O)CC[C@@H]12 | > 100 | – | – | > 100 | 0.977 | – | > 100 | > 49.5 | 0.041 | 0.00629 | – | 26.4 | – | 0.0854 | – | 0.004 | 0.059 | 0.024 | 767 nM and 491 nM | > 100
O=C1OCCC1C(O)C1c2ccccc2-c2ccccc21 (centres undefined) | > 100 | > 100 | > 100 | > 100 | > 100 | > 100 | > 100 | > 100 | – | – | – | – | – | – | – | – | – | – | – | –

— PubChem BioAssay (NCI)
